US20120095006A1, “TREATMENT OF PULMONARY HYPERTENSION” (Pfizer Inc., priority 1999, published 2012)

Experiments:
[1] = test system: human patients having various causes of pulmonary hypertension; assay: Clinical study: continuous sildenafil infusion in patients with pulmonary hypertension, PVR and SVR determined; format: in vivo; settings: infusion to plasma level 100, 300 and 500 ng/ml, FIG. 1
Procedure: A number of patients having various causes of pulmonary hypertension were selected. The patients were then assessed in order to establish baseline data, including haemodynamic parameters (by right heart catheterization), blood gas profile (via an arterial line and pulse oximetry). The patients were then tested with 40 ppm of nitric oxide (NO) by inhilation for 5 minutes to assess the reversibility of pulmonary hypertension. Haemodynamic parameters were reassessed within 5 minutes of NO and then further assessed 5-20 minutes later. When the pulmonary arterial pressure levels had returned to baseline (+−5%) inhalation haemodynamic parameters were assessed again and patients were continuously infused with sildenafil at rates to control the plasma level at 100, 300 and 500 nanogrammes per milliliter. A few patients received placebo instead of sildenafil in double-blind fashion. Haemodynamic parameters were recorded throughout infusion. From the data collected during the trial, the PVR and SVR were determined.

[2] = test system: hypoxic pulmonary vasoconstriction in anaesthetized dogs; assay: Hypoxic pulmonary vasoconstriction in anaesthetised dogs, inhaled administration; format: in vivo, dog; settings: inhaled (nebulised), lowest of doses 30, 80, 230 and 770, hypoxic challenge, FIG. 3
Procedure: This separate study was performed in analogous fashion to intravenous administration, except that doses were administered into the inspiratory limb of the respiratory circuit using a Penta-sonic Nebuliser (deVilbiss). Each inhaled dose consisted of a timed nebulisation of the solution at a respiration rate of 15 breaths/min finishing 5 min before an hypoxic challenge. Sildenafil and vehicle were administered to a maximum of four dogs per group (i.e. total of eight dogs). At the end of the first vehicle experiment an additional hypoxic challenge was done following administration of an inhaled dose of sildenafil. Doses were made up by dissolving sildenafil in vehicle [sodium acetate buffer (0.038 M)] to the required concentration. Four doses of 30, 80, 230 and 770 microgrammes/weight of dog in kilogrammes were administered.

[3] = test system: corpus cavernosum of the penis; settings: dog model; cited from earlier work
[4] = test system: hypoxic pulmonary vasoconstriction in anaesthetized Beagle dogs; assay: Hypoxic pulmonary vasoconstriction in anaesthetised dogs, intravenous administration; format: in vivo, dog
Procedure: The anaesthetized dog is the model of choice in which to study the effect of drugs, owing to the similarity between canine and human haemodynamics, and additionally, to ensure cinsistency between pharmacological and toxicological species.
Beagle dogs of either sex were anaesthetized with intravenous sodium pentobarbitone (Sagatal [trademark], 30 to 45 mg/kg) and anesthesia maintained with an infusion of Sagatal (6 mg/kg/h) into the right femoral vein. The dogs were initially intubated via the mouth, and then via a tracheotomy, and artificially respired using an Ugo Basille dog respirator. […] Respiratory gases (inspired O2 and end tidal CO2) were monitored by a Normocap 200 (trademark) respiratory gas monitor (Datex Instrumentarium Corp.). The depth of anesthesia was assessed by carefully monitoring arterial blood pressure and heart rate. […] Pulmonary artery pressure (PAP) and pulmonary artery wedge pressure were recorded from this catheter. This catheter was also connected to a cardiac index computer (Gould Instruments) and cardiac output determined by thermodilution following rapid injection of 5 ml saline at room temperature. […] Lead II ECG was recorded from 2 stainless steel needles inserted subcutaneously in the right arm and left leg. […] All data from the primary signals (PAP, Arterial blood pressure (ABP) and ECG) was recorded on a Po-ne-mah (trademark) data acquisition system. […]

CCCc1nn(C)c2c(=O)[nH]c(-c3cc(S(=O)(=O)N4CCN(C)CC4)ccc3OCC)nc12 [sildenafil, 5-[2-ethoxy-5-(4-methylpiperazin-1-ylsulfonyl)phenyl]-1,6-dihydro-1-methyl-3-propylpyrazolo[4,3-d]pyrimidin-7-one]
effect on PVR [1]: significant reduction in PVR
effect on SVR compared with effect on PVR [1]: substantially lower than the effect on PVR
dose producing maximal effect on PVR [2]: 30 microgrammes/kg
calculated intravenous dose producing half-maximal potentiation (ED50) of nerve-induced pressure rises [3]: 12 microgrammes/kg
effect on SVR compared with effect on PVR ([4]; FIG. 2): significantly lower than on PVP
dose producing maximal effect on PVR (reversing hypoxic pulmonary vasoconstriction) ([4]; lowest of doses 1.5, 4.5, 15 and 45, hypoxic challenge): 1.5 microgrammes/kg
